{"source": "patent US20250161244A1", "about": "(UNION HOSPITAL, TONGJI MEDICAL COLLEGE, HUAZHONG UNI. OF …, priority 2023, published 2025)", "system": "LX-2 cells (human HSCs)", "experiment": "CCK8 experiment, proliferation of LX-2 cells", "assay_type": "cell-based", "conditions": "48 h incubation, CCK-8; tested at 2.5 μM and 5 μM"}
{"smiles": "CC1=C(/C=C/C(C)=C/C=C/C(C)=C/CO)C(C)(C)CCC1", "note": "[VA, vitamin A]", "values": [{"measurement": "inhibitory effect on LX-2 cells proliferation", "value": "no inhibitory effect"}]}
